Tested on: erythropoiesis (nascent erythrocytes)
Assay: Cobalt chloride-induced erythropoiesis in eGFP mice (FACS of erythrocyte eGFP fluorescence)
Type: in vivo, hemizygous BALB/c mice
Conditions: for effect on erythropoiesis (right-shift of eGFP fluorescence curves): subcutaneous injection, six mice
Description: Mice were anesthetized with isofluorane and a minute incision was made into the lateral tail vein. Approximately 1 μl of tail vein blood was diluted into 0.5 ml of sterile saline containing 3 mM EDTA and stored at 4° C. Fluorescence activated cell sorting (FACS) was performed within 6 hours of blood collection on a FACSAria (BD Biosciences, San Jose, Calif.) flow cytometer. A 488 nm laser was used to excite the eGFP and a 530/30 nm band-pass filter and a 502 nm long-pass filter were used to monitor emissions. Forward and side scatter were used to gate for single erythrocytes, with approximately one hundred thousand events measured per blood sample. Median Fluorescence Intensity (MFI) for each erythrocyte population was analyzed using FlowJo 7.2.5 software (Tree Star, Inc. Ashland, Oreg.).
Tail vein blood (1 μl) was collected daily from one-year old hemizygous BALB/c mice starting on the day before cobalt chloride treatment (Day −1) and continuing through three days after treatment (Day 3) as described in Example 1, On Day 0, six one-year old BALB/c (hemizygous) mice were subcutaneously injected with 0.1 mL saline containing 4 μmols of cobalt chloride. FACS was performed immediately following the blood draw, and data were analyzed with FlowJo software as described in Example 1.

## [Cl][Co][Cl] [cobalt chloride]
4 μmols cobalt chloride s.c. on Day 0, Day 2 vs Day −1, statistically significant
  increase in the number of nascent erythrocytes: 10 fold
  effect on erythropoiesis (right-shift of eGFP fluorescence curves): stimulates erythropoiesis in vivo
Listed as Cobalt chloride
  effect on erythropoiesis (right-shift of eGFP fluorescence curves): stimulated erythropoiesis in each of the six mice tested
